From ChEMBL document CHEMBL1201862, “PubChem BioAssay data set” (2004)
The source made the active and inactive calls.

Legend:
[1] = test system: Escherichia coli; assay: microbe, parasite or virus in culture
[2] = Luminescence Cell-Based Dose Retest to Confirm Inhibitors of Cancer Stem Cells. [Related pubchem assays (depositor defined):AID2717, AID2721]; format: functional; conditions: Homo sapiens
[3] = cytotoxicity in HMLE control line with eGFP shRNA, dose response, counter-screen for HMLE_sh_ECad selective toxicity project, cell-based, HMLE_sh_eGFP, luminescence (AID 463074); format: functional, Homo sapiens;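 further: HMLE human mammary epithelial cells expressing control shRNA against eGFP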
[4] = test system: Vero; assay: cells; format: functional, cell-based; conditions: Chlorocebus sabaeus
[5] = test system: Escherichia coli; assay: microbe, parasite or virus in culture; remark: listed apart in the source
[6] = cytotoxicity in HEK-293T NF-kB-Luc cells, dose response, cytotoxicity control for B/T-cell NF-kB inhibitor project, cell-based, uHTS hits (AID 489019); format: functional;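 further: IC50 reflects cytotoxicity as loss of cell viability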
[7] = test system: Jurkat; assay: antigen receptor-induced NF-kB inhibitors, dose response, Jurkat, luciferase reporter, luminescence, B- and T-cell (AID 489004); format: functional, cell-based; conditions: Homo sapiens;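 further: NF-kB luciferase reporter Jurkat cells stimulated with PMA plus ionomycin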
[8] = target: Genome polyprotein (dengue virus type 2, UniProt P29990); assay: Dengue-2 NS5 methyltransferase inhibitors, primary screen, biochemical, confirmation dose response (AID 588689); format: functional
Genome polyprotein, sequence (P29990 2492-3391 limits assumed): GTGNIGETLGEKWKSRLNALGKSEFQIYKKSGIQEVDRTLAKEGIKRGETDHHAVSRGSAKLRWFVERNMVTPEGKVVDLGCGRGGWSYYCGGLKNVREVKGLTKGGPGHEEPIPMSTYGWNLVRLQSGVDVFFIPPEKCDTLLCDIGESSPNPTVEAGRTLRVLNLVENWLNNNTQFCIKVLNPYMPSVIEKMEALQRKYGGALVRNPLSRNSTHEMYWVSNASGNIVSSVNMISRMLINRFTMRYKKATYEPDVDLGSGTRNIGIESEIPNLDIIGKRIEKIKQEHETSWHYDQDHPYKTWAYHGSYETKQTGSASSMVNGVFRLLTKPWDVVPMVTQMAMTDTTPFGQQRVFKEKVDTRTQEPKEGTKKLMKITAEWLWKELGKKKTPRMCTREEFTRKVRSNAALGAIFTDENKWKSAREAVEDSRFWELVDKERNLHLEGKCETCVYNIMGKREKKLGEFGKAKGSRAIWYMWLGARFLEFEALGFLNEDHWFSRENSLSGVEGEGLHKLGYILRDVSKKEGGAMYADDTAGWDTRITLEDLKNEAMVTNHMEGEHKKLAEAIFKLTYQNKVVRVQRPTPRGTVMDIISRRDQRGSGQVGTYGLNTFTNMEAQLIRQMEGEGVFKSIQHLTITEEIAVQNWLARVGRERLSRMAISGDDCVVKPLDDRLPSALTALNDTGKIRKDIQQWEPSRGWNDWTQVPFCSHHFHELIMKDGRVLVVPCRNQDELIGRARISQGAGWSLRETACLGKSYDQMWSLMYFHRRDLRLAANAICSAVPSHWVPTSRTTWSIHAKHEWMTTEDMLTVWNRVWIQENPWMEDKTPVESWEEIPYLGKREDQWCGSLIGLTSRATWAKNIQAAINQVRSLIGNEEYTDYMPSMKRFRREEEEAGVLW

[9] = test system: HEK293; assay: NOD2 signaling inhibitors in MDP-stimulated cells, cell-based, uHTS, luminescence (AID 2001); format: functional; conditions: Homo sapiens
[10] = test system: Vero; assay: Vero cell cytotoxicity, cytotoxicity control for flavivirus capping enzyme inhibitors (AID 588742); format: functional; conditions: Chlorocebus sabaeus
[11] = test system: HEK293; assay: cells; format: functional, cell-based; conditions: Homo sapiens
[12] = test system: HEK293; assay: NOD1 signaling inhibitors, primary screen, cell-based, luminescence, uHTS (AID 1578); format: functional; conditions: Homo sapiens
[13] = test system: HEK293; assay: cells; format: functional, cell-based; conditions: Homo sapiens; remark: listed apart in the source
[14] = target: Photoreceptor-specific nuclear receptor (Homo sapiens, UniProt Q9Y5X4); format: functional, cell-based;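 further: CHO-S cells with Gal4-NCOR and VP16-NR2E3 two-hybrid luciferase reporter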
Photoreceptor-specific nuclear receptor, sequence (Q9Y5X4 whole entry, the tested form may be a part): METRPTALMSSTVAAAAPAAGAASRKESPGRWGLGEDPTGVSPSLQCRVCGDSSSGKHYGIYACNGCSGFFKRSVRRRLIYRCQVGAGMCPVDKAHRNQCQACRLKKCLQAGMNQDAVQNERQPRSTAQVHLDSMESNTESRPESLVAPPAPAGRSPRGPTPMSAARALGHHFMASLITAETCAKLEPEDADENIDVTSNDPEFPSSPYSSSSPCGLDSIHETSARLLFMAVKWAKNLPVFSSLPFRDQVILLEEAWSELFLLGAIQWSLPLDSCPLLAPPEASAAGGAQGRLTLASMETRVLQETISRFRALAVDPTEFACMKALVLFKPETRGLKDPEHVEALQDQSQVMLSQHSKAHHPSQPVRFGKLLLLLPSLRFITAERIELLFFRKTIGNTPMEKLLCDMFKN

## O=C(C[C@H]1C[C@H](C(=O)N2CCOCC2)[C@@]2(CCC3CCCC3)c3[nH]c4cc(-c5ccco5)ccc4c3CCN2C1=O)NCCCn1ccnc1
[1]
  AC50: 59.9 µM (active)

## O=C(NCCc1ccc(Cl)cc1Cl)c1cc([N+](=O)[O-])cnc1O
[2]
  AC50: 4.14 µM (active)
[3]
  AC50: 61.9 µM (active)

## CCOC(=O)c1c(-c2cccc3ccccc23)csc1NC(=O)C1C2CCC(O2)C1C(=O)O (stereo unspecified)
[4]
  IC50: > 25 µM (active)

## CCCCN(C)CCn1c(=S)[nH]c2ncccc2c1=O
[5]
  AC50: 29.7 µM (active)

## O=C(Nc1nc(-c2ccc(F)c(F)c2)cs1)c1ccc(OCC2CCCO2)cc1 (stereo unspecified)
[6]
  IC50: > 80 µM (inactive)
[7]
  IC50: > 80 µM (inactive)

## NC(=O)CC(NC(=O)Cc1cccc2ccccc12)c1ccc(NCCOc2ccccc2)c([N+](=O)[O-])c1 (stereo unspecified)
[2]
  AC50: 147 µM (active)
[3]
  AC50: 22.9 µM (active)

## CC(C)c1ccc(-c2csc(NC(=O)c3cccs3)c2C(=O)O)cc1
[8]
  IC50: 39.9 µM (active)
[9]
  IC50: 9.22 µM (active)
[10]
  CC50: > 40 µM (active)
[11]
  IC50: > 20 µM (inactive)
[12]
  EC50: 8.7 µM (active)
[13]
  IC50: > 20 µM (inactive)
[14]
  IC50: 6.83 µM (active)
